Measured values from patent US20260317324A1, “BIFUNCTIONAL COMPOUNDS FOR DEGRADING BRAF VIA UBIQUITIN PROTEOSOME PATHWAY” (Nurix Therapeutics, Inc., priority 2023, published 2026).

Tests used:
Assay type in all cases: cell-based
[1] = molecular target: T1, BRAF D594G (Homo sapiens, UniProt P15056, D594G); experiment: BRAF HiBiT degradation assay, C-terminal HiBiT-tagged BRAF D594G overexpressed in HCT-116 BRAF−/− cells (clone 63), Nano-Glo HiBiT Lytic assay
T1 construct: Horizon Discovery (HCT-116 BRAF−/− cells); host or cells: HCT-116 BRAF−/− cells, clone 63, lentiviral transduction
T1 sequence (P15056 whole entry D594G): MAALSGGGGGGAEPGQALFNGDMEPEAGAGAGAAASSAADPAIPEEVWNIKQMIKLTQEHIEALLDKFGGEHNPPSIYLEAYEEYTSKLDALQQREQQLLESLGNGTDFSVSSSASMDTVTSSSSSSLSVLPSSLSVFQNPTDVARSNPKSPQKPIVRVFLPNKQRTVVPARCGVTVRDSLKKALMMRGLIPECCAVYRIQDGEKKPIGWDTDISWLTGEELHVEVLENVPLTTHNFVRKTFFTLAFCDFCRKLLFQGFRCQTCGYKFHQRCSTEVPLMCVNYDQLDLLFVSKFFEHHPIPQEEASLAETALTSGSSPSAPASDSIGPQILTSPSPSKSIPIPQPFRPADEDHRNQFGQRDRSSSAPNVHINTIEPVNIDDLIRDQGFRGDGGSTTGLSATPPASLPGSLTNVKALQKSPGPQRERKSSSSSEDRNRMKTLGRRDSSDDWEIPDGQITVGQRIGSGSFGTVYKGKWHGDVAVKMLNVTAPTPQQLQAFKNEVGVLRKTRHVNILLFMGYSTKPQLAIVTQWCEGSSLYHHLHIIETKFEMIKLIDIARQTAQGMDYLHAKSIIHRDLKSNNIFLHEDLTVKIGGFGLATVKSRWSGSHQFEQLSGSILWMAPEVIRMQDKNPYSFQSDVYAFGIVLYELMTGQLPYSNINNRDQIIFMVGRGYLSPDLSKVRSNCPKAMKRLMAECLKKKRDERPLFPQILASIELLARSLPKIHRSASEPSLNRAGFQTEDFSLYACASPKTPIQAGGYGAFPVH
Source text: (§1) An A375 cell line expressing a homozygous V600E mutation was purchased from ATCC (Manassas, VA, USA). An A375 clone 1F10 cell line with an endogenous C-terminal HiBiT fusion tag on BRAF V600E allele was generated internally using CRISPR-Cas9 technology and cultured in DMEM, high glucose supplemented with 10% FBS and 1× GlutaMAX. A HCT-116 BRAF−/− cell line overexpressing the C-terminal HiBiT-tagged G466V, G469A, and D594G mutants were generated by lentiviral transduction, externally at Biosettia Inc (San Diego, CA, USA). The stably transfected cells were cultured in RPMI media supplemented with 10% FBS, 1× GlutaMAX, and 0.25 μg/ml puromycin. DMEM medium, RPMI 1640 medium, GlutaMAX, fetal bovine serum (FBS), and puromycin were purchased from Gibco (Grand Island, NY, USA). HCT-116 BRAF−/− cells were purchased from Horizon Discovery (Waterbeach, UK).
(§2) The C-terminal HiBiT tagged mutant BRAF G466V, G469A, and D594G overexpressed in HCT-116 BRAF−/− cells (monoclonal cell line, cell clones 8, 34, and 63, respectively) were seeded at the density of 3,000 cells/well in 30 μL media (RPMI supplemented with 10% FBS and 1× GlutaMAX) in white opaque 384-well plates (Corning #3570) from column 1 to column 23. Wildtype HCT-116 BRAF cells were seeded in column 24 at the same cell density in 30 μL media. Cells were incubated at 37° C. with 5% CO2 for 24 h.
(§3) Intermediate compound dilution series (5-point, ranging from 5 mM to 0.5 μM, 10-fold dilutions in DMSO) were prepared in a source plate (Beckman Coulter cat. no. 001-16128). Final compound dilution series (11-point, ranging from 1 μM to 0.01 nM, half-log dilutions in DMSO) were stamped into the assay plate (Corning #3570, column 1-11 and 12-22) using the Echo Acoustic Liquid Handler (Beckman Coulter). Each compound was plated in duplicate, and the total volume of compound DMSO solution was 60 nL/well (0.2% final DMSO concentration). DMSO was included in wells A23-L23 and A24-L24. The DMSO-treated HiBiT-tagged samples served as Negative Control (NC) and the DMSO-treated wildtype samples served as Background Control (BC) for the HiBiT assay.
(§4) HiBiT signal was measured by a Nano-Glo HiBiT Lytic assay (Promega cat. no. N3050). HiBiT lytic detection reagent (Nano-Glo HiBiT Lytic Buffer with 1:50 Nano-Glo HiBiT Lytic Substrate and 1:100 LgBiT Protein, 40 μL) was added using Bravo. The mixture was incubated at room temperature, in the dark, and with gentle shaking for 10 min. Luminesce units (LU) were read on an EnVision plate reader 2105 (Perkin Elmer).
(§5) Percent protein remaining and viability remaining per sample were calculated as follows: […]
(§6) % Protein remaining values were plotted as a function of compound concentration. XC50 (DC50) values were determined by fitting curves using the following equation:
(§7) For the HiBiT degradation assay, the key parameters reported include: • The dose of compound that produces 50% degradation (DC50 at 50%): • DC50 at 50%: the Fitted X value (Conc.) at Y=50 (response) • Observed Dmax (Obs. Dmax) is the percentage protein degraded at maximal compound effect relative to DMSO-treated control: […]

[2] = molecular target: T2, BRAF V600E (Homo sapiens, UniProt P15056, V600E); experiment: BRAF HiBiT degradation assay, C-terminal HiBiT-tagged BRAF V600E A375 cells (clone 1F10), Nano-Glo HiBiT Lytic assay; conditions: for Dmax: A-375
T2 construct: endogenous C-terminal HiBiT fusion tag on BRAF V600E allele; endogenous in cells; host or cells: A375 clone 1F10 (CRISPR-Cas9 knock-in of the HiBiT tag; parental A375 from ATCC)
T2 sequence (P15056 whole entry V600E, the tested form may be a part): as the sequence (P15056 whole entry D594G) above, with G594D, V600E counted along it
How it was run: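 Luminescence from the Nano-Glo HiBiT lytic read-out gave % BRAF V600E remaining versus DMSO-treated tagged cells, with untagged A375 as background. Clone 1F10 cells (10,000/well, 24 h pre-culture) received compound at 1 μM–0.01 nM in half-log steps, 0.2% DMSO; curve fits gave DC50 at Y=50, plus observed Dmax.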

[3] = molecular target: T3, BRAF G466V (Homo sapiens, UniProt P15056, G466V); experiment: BRAF HiBiT degradation assay, C-terminal HiBiT-tagged BRAF G466V overexpressed in HCT-116 BRAF−/− cells (clone 8), Nano-Glo HiBiT Lytic assay
T3 construct: Horizon Discovery (HCT-116 BRAF−/− cells); host or cells: HCT-116 BRAF−/− cells, clone 8, lentiviral transduction
T3 sequence (P15056 whole entry G466V): as the sequence (P15056 whole entry D594G) above, with G466V, G594D counted along it
Source text: as §1, §2, §3, §4, §5, §6, §7

[4] = molecular target: T4, BRAF G469A (Homo sapiens, UniProt P15056, G469A); experiment: BRAF HiBiT degradation assay, C-terminal HiBiT-tagged BRAF G469A overexpressed in HCT-116 BRAF−/− cells (clone 34), Nano-Glo HiBiT Lytic assay
T4 construct: Horizon Discovery (HCT-116 BRAF−/− cells); host or cells: HCT-116 BRAF−/− cells, clone 34, lentiviral transduction
T4 sequence (P15056 whole entry G469A): as the sequence (P15056 whole entry D594G) above, with G469A, G594D counted along it
Source text: as §1, §2, §3, §4, §5, §6, §7

[5] = BRAF D594G (Class 3), HCT-116 BRAF−/− cells, DC50 at 50% degradation
[6] = BRAF D594G (Class 3), HCT-116 BRAF−/− cells, observed Dmax relative to DMSO control
[7] = A375 (BRAF V600E, Class 1), DC50 at 50% degradation
[8] = A375 (BRAF V600E, Class 1), observed Dmax, % protein degraded relative to DMSO control
[9] = BRAF G466V (Class 3), HCT-116 BRAF−/− cells, DC50 at 50% degradation
[10] = BRAF G466V (Class 3), HCT-116 BRAF−/− cells, observed Dmax relative to DMSO control
[11] = BRAF G469A (Class 2), HCT-116 BRAF−/− cells, DC50 at 50% degradation
[12] = BRAF G469A (Class 2), HCT-116 BRAF−/− cells, observed Dmax relative to DMSO control
[13] = BRAF D594G, DC50 at 50%: fitted conc. at Y=50
[14] = HCT-116, BRAF D594G, percentage protein degraded at maximal compound effect relative to DMSO
[15] = A375 (BRAF V600E), DC50 at 50%: fitted conc. at Y=50
[16] = A375 (BRAF V600E), percentage protein degraded at maximal compound effect relative to DMSO
[17] = BRAF G466V, DC50 at 50%: fitted conc. at Y=50
[18] = HCT-116, BRAF G466V, percentage protein degraded at maximal compound effect relative to DMSO
[19] = Class 2, BRAF G469A, DC50 at 50%: fitted conc. at Y=50
[20] = HCT-116, Class 2, BRAF G469A, percentage protein degraded at maximal compound effect relative to DMSO

CCC(C)S(=O)(=O)Nc1cc(Cl)cc(-c2cn(-c3ccc(N4CCN(CC5CCN(c6ccc([C@@H]7CCC(=O)NC7=O)cn6)CC5)CC4)cc3)nc2-c2ccncc2)c1F (mixture of isomers) [Compound 329, Rac-(R)—N-(5-chloro-3-(1-(4-(4-((1-(5-((S)-2,6-dioxopiperidin-3-yl)pyridin-2-yl)piperidin-4-yl)methyl)piperazin-1-yl)phenyl)-3-(pyridin-4-yl)-1H-pyrazol-4-yl)-2-fluorophenyl)butane-2-sulfonamide]
DC50 [1, 5]: < 10 nM
Dmax [1, 6]: > 70%
DC50 [2, 7]: < 10 nM
Dmax [2, 8]: > 70%
DC50 [3, 9]: < 10 nM
Dmax [3, 10]: > 70%
DC50 [4, 11]: 10 to 50 nM
Dmax [4, 12]: > 70%

O=C1CC[C@H](c2ccc(N3CCC(CN4CCN(c5ccc(-n6cc(-c7cc(Cl)cc(NS(=O)(=O)N8CCCC8)c7F)c(-c7ccncc7)n6)cc5)CC4)CC3)nc2)C(=O)N1 [Compound 285, N-{5-chloro-3-[1-(4-{4-[(1-{5-[(3R)-2,6-dioxopiperidin-3-yl]pyridin-2-yl}piperidin-4-yl)methyl]piperazin-1-yl}phenyl)-3-(pyridin-4-yl)-1H-pyrazol-4-yl]-2-fluorophenyl}pyrrolidine-1-sulfonamide]
DC50 [1, 5]: < 10 nM
Dmax [1, 6]: 30 to 70%
DC50 [2, 7]: < 10 nM
Dmax [2, 8]: > 70%
DC50 [3, 9]: < 10 nM
Dmax [3, 10]: > 70%
DC50 [4, 11]: < 10 nM
Dmax [4, 12]: > 70%

CCCS(=O)(=O)Nc1cc(Cl)cc(-c2cn(-c3ccc(N4CCN(CC5CCN(c6ccc(N7CCC(=O)NC7=O)cc6)CC5)[C@H](C)C4)cc3)nc2-c2ccncc2)c1F [Compound 277, N-[5-chloro-3-(1-{4-[(3R)-4-({1-[4-(2,4-dioxo-1,3-diazinan-1-yl)phenyl]piperidin-4-yl}methyl)-3-methylpiperazin-1-yl]phenyl}-3-(pyridin-4-yl)-1H-pyrazol-4-yl)-2-fluorophenyl]propane-1-sulfonamide]
DC50 [1, 5]: 50 to 500 nM
Dmax [1, 6]: 30 to 70%
DC50 [2, 7]: < 10 nM
Dmax [2, 8]: > 70%
DC50 [3, 9]: < 10 nM
Dmax [3, 10]: > 70%
DC50 [4, 11]: 10 to 50 nM
Dmax [4, 12]: 30 to 70%

CCCS(=O)(=O)Nc1cccc(-c2nc(C(C)(C)C3CCN(C(=O)C4CN(C5CCN(c6ccc7c(c6)C(=O)N(C6CCC(=O)NC6=O)C7=O)CC5)C4)CC3)sc2-c2ccnc(N)n2)c1F (racemic) [Compound 243, Rac-N-{3-[5-(2-aminopyrimidin-4-yl)-2-(2-{1-[1-(1-{2-[(3R)-2,6-dioxopiperidin-3-yl]-1,3-dioxo-2,3-dihydro-1H-isoindol-5-yl}piperidin-4-yl)azetidine-3-carbonyl]piperidin-4-yl}propan-2-yl)-1,3-thiazol-4-yl]-2-fluorophenyl}propane-1-sulfonamide]
DC50 [1, 13]: > 500 nM
Dmax [1, 14]: 30 to 70%
DC50 [2, 15]: 50 to 500 nM
Dmax [2, 16]: 30 to 70%
DC50 [3, 17]: > 500 nM
Dmax [3, 18]: < 30%
DC50 [4, 19]: > 500 nM
Dmax [4, 20]: < 30%

CCCS(=O)(=O)Nc1cccc(-c2cn(-c3ccc(C4CCN(CC5CCN(c6ccc(C7CCC(=O)NC7=O)cn6)CC5)CC4)cc3)nc2-c2ccncc2)c1F (racemic) [Compound 24, Rac-N-{3-[1-(4-{1-[(1-{5-[(3R)-2,6-dioxopiperidin-3-yl]pyridin-2-yl}piperidin-4-yl)methyl]piperidin-4-yl}phenyl)-3-(pyridin-4-yl)-1H-pyrazol-4-yl]-2-fluorophenyl}propane-1-sulfonamide]
DC50 [1, 13]: > 500 nM
Dmax [1, 14]: 30 to 70%
DC50 [2, 15]: 10 to 50 nM
Dmax [2, 16]: > 70%
DC50 [3, 17]: 10 to 50 nM
Dmax [3, 18]: 30 to 70%
DC50 [4, 19]: > 500 nM
Dmax [4, 20]: < 30%

O=C1CCC(c2ccc(N3CCC(CN4CCN(c5cnc(-n6cc(-c7cc(Cl)cc(NS(=O)(=O)N8CCCC8)c7F)c(-c7ccncc7)n6)nc5)CC4)CC3)nc2)C(=O)N1 (racemic) [Compound 359, Rac-N-{5-chloro-3-[1-(5-{4-[(1-{5-[(3R)-2,6-dioxopiperidin-3-yl]pyridin-2-yl}piperidin-4-yl)methyl]piperazin-1-yl}pyrimidin-2-yl)-3-(pyridin-4-yl)-1H-pyrazol-4-yl]-2-fluorophenyl}pyrrolidine-1-sulfonamide]
DC50 [1, 5]: < 10 nM
Dmax [1, 6]: > 70%
DC50 [2, 7]: < 10 nM
Dmax [2, 8]: > 70%
DC50 [3, 9]: < 10 nM
Dmax [3, 10]: > 70%
DC50 [4, 11]: < 10 nM
Dmax [4, 12]: > 70%

O=C1CC[C@H](c2ccc(N3CCC(CN4CCN(c5ccc(-n6cc(-c7cc(C(F)F)cc(NS(=O)(=O)N8CCCC8)c7F)c(-c7ccncc7)n6)cc5)CC4)CC3)cc2)C(=O)N1 [Compound 349, N-[5-(difluoromethyl)-3-[1-(4-{4-[(1-{4-[(3R)-2,6-dioxopiperidin-3-yl]phenyl}piperidin-4-yl)methyl]piperazin-1-yl}phenyl)-3-(pyridin-4-yl)-1H-pyrazol-4-yl]-2-fluorophenyl]pyrrolidine-1-sulfonamide]
DC50 [1, 5]: < 10 nM
Dmax [1, 6]: > 70%
DC50 [2, 7]: < 10 nM
Dmax [2, 8]: > 70%
DC50 [3, 9]: < 10 nM
Dmax [3, 10]: > 70%
DC50 [4, 11]: < 10 nM
Dmax [4, 12]: > 70%

O=C1CC[C@H](c2ccc(N3CCC(CN4CCN(c5ccc(-n6cc(-c7cc(Cl)cc(NS(=O)(=O)N8CCCC8)c7F)c(-c7ccncc7)n6)c(F)c5)CC4)CC3)cc2)C(=O)N1 [Compound 281, N-{5-chloro-3-[1-(4-{4-[(1-{4-[(3R)-2,6-dioxopiperidin-3-yl]phenyl}piperidin-4-yl)methyl]piperazin-1-yl}-2-fluorophenyl)-3-(pyridin-4-yl)-1H-pyrazol-4-yl]-2-fluorophenyl}pyrrolidine-1-sulfonamide]
DC50 [1, 5]: < 10 nM
Dmax [1, 6]: 30 to 70%
DC50 [2, 7]: < 10 nM
Dmax [2, 8]: > 70%
DC50 [3, 9]: < 10 nM
Dmax [3, 10]: > 70%
DC50 [4, 11]: 10 to 50 nM
Dmax [4, 12]: 30 to 70%
